Measurements published in patent US9271962B2 (NORTHEASTERN UNIVERSITY, priority 2008, dated 2016).
Like-named read-outs stand apart in the source and are kept apart here.

How the values were obtained:
hMGL = molecular target: T1, hMGL (Homo sapiens, UniProt Q99685); assay: Fluorescent enzyme assay, MGL (AHMMCE hydrolysis); format: biochemical; settings: for inhibition at 1 µM: 1000 nM inhibitor; for inhibition at 0.01 µM: read-out: % Inhibition of Enzyme by inhibitor, MGL, 10 nM; for inhibition at 100 µM: 100 uM inhibitor, printed in the 1000 nM column
T1 construct: A full-length cDNA clone of the human MGL transcript variant 1; made in house; host or cells: E. coli BL21 (DE3)
T1 sequence (Q99685 2-303 limits assumed): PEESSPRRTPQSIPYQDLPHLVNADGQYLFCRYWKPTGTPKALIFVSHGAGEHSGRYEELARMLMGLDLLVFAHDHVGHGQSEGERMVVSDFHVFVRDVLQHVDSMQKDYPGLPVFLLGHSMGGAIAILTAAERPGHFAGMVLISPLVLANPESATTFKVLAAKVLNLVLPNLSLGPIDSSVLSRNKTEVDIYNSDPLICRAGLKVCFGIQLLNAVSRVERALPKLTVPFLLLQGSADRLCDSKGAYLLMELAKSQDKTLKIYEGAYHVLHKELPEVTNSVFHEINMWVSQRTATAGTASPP
Procedure: (§1) Some analogs were tested for their FAAH/MGL inhibitory activity, which is expressed as % of inhibition (Tables 2, 3, and 4 below). The percentage of inhibition results from three-point assay (three concentrations of inhibitor are used) and it is less accurate (preliminary screening) than the IC50/Ki values that are determined from eight-point assay (eight different concentrations of inhibitor were used). The percentage of inhibition describes the percentage by which the inhibitor reduces the velocity/rate of AAMCA (arachidonoyl-7-amino-4-methylcoumarin amide) or AHMMCE (arachidonoyl-7-hydroxy-6-methoxy-4-methylcoumarin ester) hydrolysis by FAAH or MGL respectively. The IC50 is the concentration of the inhibitor, which results in 50% inhibition of the velocity/rate of AAMCA (arachidonoyl 7-amino-4-methylcoumarin amide) hydrolysis by FAAH or AHMMCE (Arachidonoyl, 7-hydroxy-6-methoxy-4-methylcoumarin ester) hydrolysis by MGL. The Ki value is the affinity constant and describes the ability of the compounds to inhibit the function of FAAH or MGL. The lower the IC50/Ki values, the higher the affinity of the inhibitor for the enzyme and the higher its inhibitory activity. A detailed description of the methods used to test inhibitory activity of compounds is given below.
A full-length cDNA clone of the human MGL transcript variant 1 (gi: 51242951) was obtained from OriGene Technologies (Rockville, Md.). The coding part of the MGL sequence (except the translation initiation codon ATG) was amplified by a polymerase chain reaction (PCR) using forward […] and reverse […] primers containing PmlI and SacI restriction enzyme recognition sites, respectively. iProof high-fidelity DNA polymerase (Bio-Rad, Hercules, Calif.) was used in the PCR amplification with 33 cycles, each consisting of denaturation at 94° C. for 10 s, annealing at 55° C. for 33 s, and extension at 72° C. for 1 min. The PCR product and pET45b vector were digested with PmlI and SacI restriction enzymes, and the vector was dephosphorylated with CIP followed by in-gel purification using the MinElute Gel Extraction Kit (Qiagen Corp., Valencia, Calif.). The fragment was inserted into the vector directly downstream after the 6 histidine and valine codons, generating the construct pET45His6hMGL for expression of hMGL containing an N-terminal His6-tag. GC10 E. coli cells were used for DNA transformation and plasmid propagation. Mini- and midi-scale plasmid DNA preparations were performed using a GenElute Plasmid Miniprep Kit (Sigma) and PureYield Plasmid Midiprep System (Promega, Madison, Wis.), respectively. In-frame vector-fragment junctions and the coding sequence of the recombinant gene were confirmed by sequencing. The pET45His6hMGL construct was transformed into BL21 (DE3) and Origami (DE3) E. coli expression strains (Novagen, Madison, Wis.).
A single E. coli BL21 (DE3) colony containing the pET45His6hMGL plasmid was inoculated into 12 mL of Luria broth-ampicillin medium and grown overnight with shaking (250 rpm) at 37° C. The next morning, 10 mL of this culture was inoculated into 1 L of fresh Luria broth-ampicillin and allowed to grow until culture turbidity reached an (OD)600 of 0.6-0.8, at which time expression from the T7 promoter was induced by adding isopropyl-β-D-thio-galactopyranoside (1 mM). After 5 h induction, the cells were harvested by centrifugation at 5,000 g for 10 min at 4° C., washed with PBS, and held at −80° C. Five grams (wet-weight) of cells were resuspended in 50 mL lysis buffer (100 mM NaCl; 50 mM Tris, pH 8.0) supplemented with Triton X-100 (0.5%), lysozyme (0.2 mg/mL), and DNase I (25 μg/ml) and disrupted on ice by three, one-min sonication cycles, each consisting of 1-sec sonication bursts at 50 W power separated from each other by a 2-sec interval (Vibra-Cell 500 W, Sonics, Newtown, Conn.). The cell lysate was centrifuged at 10,000 g for 30 min at 4° C. […]

[1] = system: rats (KA-induced seizures); assay: KA-induced seizures in rats, seizure scoring for 4 h; format: in vivo; settings: 5 mg/kg injected immediately after 10 mg/kg KA; 4-h rating period
Procedure: These compounds were tested in vivo. Seizures were initiated in rats by injection with 10 mg/kg of KA (insult).

ΔTM rFAAH = molecular target: T2, ΔTM rFAAH (Rattus norvegicus, UniProt P97612); assay: Fluorescent enzyme assay, FAAH (AAMCA hydrolysis); format: biochemical; settings: for inhibition at 1 µM: 1000 nM inhibitor; for inhibition at 1 µM / inhibition at 0.01 µM / IC50: AAMCA substrate; for inhibition at 1 µM / inhibition at 0.01 µM: screening assay; for inhibition at 0.01 µM: 10 nM inhibitor; for IC50: eight-point dose response; for inhibition at 100 µM: 100 uM inhibitor, printed in the 1000 nM column
T2 construct: 15 ug of ΔTM rFAAH (cell lysate obtained by recombinant procedure); made in house
T2 sequence (P97612 30-579 limits assumed): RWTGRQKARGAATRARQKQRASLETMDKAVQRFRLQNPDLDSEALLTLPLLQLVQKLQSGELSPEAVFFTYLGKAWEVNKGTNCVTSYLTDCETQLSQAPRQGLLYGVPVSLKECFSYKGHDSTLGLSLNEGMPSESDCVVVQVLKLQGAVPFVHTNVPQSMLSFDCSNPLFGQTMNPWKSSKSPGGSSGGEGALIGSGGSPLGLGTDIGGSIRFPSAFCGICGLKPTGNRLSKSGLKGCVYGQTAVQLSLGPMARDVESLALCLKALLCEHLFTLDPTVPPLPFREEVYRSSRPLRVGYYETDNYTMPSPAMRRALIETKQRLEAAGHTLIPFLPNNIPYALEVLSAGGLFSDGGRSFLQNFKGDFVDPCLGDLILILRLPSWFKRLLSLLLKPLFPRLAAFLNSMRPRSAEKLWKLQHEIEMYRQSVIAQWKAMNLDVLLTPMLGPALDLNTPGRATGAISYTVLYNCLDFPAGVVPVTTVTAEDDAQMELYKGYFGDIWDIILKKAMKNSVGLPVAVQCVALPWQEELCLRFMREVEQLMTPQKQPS
Procedure: as §1
The enzyme (FAAH and MGL) assays were performed in 96 well plates (Coster #3650) in a total volume of 200 uL. Fluorogenic substrate AAMCA (arachidonoyl 7-amino-4-methylcoumarin amide) for FAAH and AHMMCE (arachidonoyl 7-hydroxy-6-methoxy-4-methylcoumarin ester) for MGL were used using BioTek Synergy HT Microplate Reader. Compounds and substrates were dissolved in DMSO provide a 10 mM stock solution and kept as a stock solution at −20° C. until used for assay. Stock solutions were thawed and reconstituted in 50:50 DMSO/assay buffer to a final DMSO concentration per well below 8%. This ensures that the compounds and substrate are in solution during assay. […] Appropriate substrate was added to adjust the final concentration in each well to 20 uM for FAAH (2× Km) and 10 uM for MGL (1×KM). Fluorescence readings were performed at λex=360/λem=460 for 4 h using Kinetic assay protocol at every 20 min (the fluorescent product coumarin produced is quantitated by this procedure). The readings at 3 h for FAAH and 2 h for MGL (linear maximum hydrolysis kinetics of enzyme on substrate) were used to calculate percent inhibition based on controls. Compounds which had more than 50 percent inhibition at 10 uM were selected for dose response study to determine IC50 values. The dose response at 8 concentration points was performed as with the screening assay except that compounds were serially diluted to 8 concentration points which were chosen based on IC50 value, which were calculated from the screening assay results. Assays are run twice in triplicates and Graphpad Prism software is used to plot inhibition data to obtain IC50 values.

[2] = AHMMCE substrate, screening assay
[3] = 10 nM inhibitor, AHMMCE substrate, screening assay

In the case of `C#CCc1nnnn1C(=O)N(C)C` [Compound 2, N,N-dimethyl-5-prop-2-yn-1-yl-1H-tetrazole-1-carboxamide], the inhibition at 1 µM (hMGL; [2]) is reported as 35%, the KA-induced seizure severity [1] is reported as “reduce KA-induced seizure severity” and the inhibition at 1 µM (ΔTM rFAAH) is reported as 90%.
`CN(C)C(=O)n1cnc(-c2ccccc2)c1` [Compound 33, N,N-dimethyl-4-phenyl-1H-imidazole-1-carboxamide] gave an inhibition at 1 µM (hMGL; [2]) of 6% and an inhibition at 1 µM (ΔTM rFAAH) of 88%.
Work on `CN(C)C(=O)n1nnc(Cc2ccccc2)n1` [Compound 34, 5-benzyl-N,N-dimethyl-2H-tetrazole-2-carboxamide] yielded an inhibition at 0.01 µM (hMGL; [3]) of 100% and an inhibition at 0.01 µM (ΔTM rFAAH) of 91%.
`CN(C)C(=O)n1nnnc1Cc1ccccc1` [Compound 35, 5-benzyl-N,N-dimethyl-1H-tetrazole-1-carboxamide] was tested, and the inhibition at 0.01 µM (hMGL; [3]) was 41% and the inhibition at 0.01 µM (ΔTM rFAAH) was 81%.
`CN(C)C(=O)Oc1ccc(Cc2nnn(C(=O)N(C)C)n2)cc1` [Compound 36a, 4((2-(dimethylcarbamoyl)-2H-tetrazol-5-yl)methyl)phenyl dimethylcarbamate] was tested, and the inhibition at 0.01 µM (hMGL) was 92% and the inhibition at 0.01 µM (ΔTM rFAAH) was 80%.
Work on `CN(C)C(=O)Oc1ccc(Cc2nnnn2C(=O)N(C)C)cc1` [Compound 36b, 4-((1-(dimethylcarbamoyl)-1H-tetrazol-5-yl)methyl)phenyl dimethylcarbamate] yielded an inhibition at 0.01 µM (hMGL) of 98% and an inhibition at 0.01 µM (ΔTM rFAAH) of 82%.
For `CN(C)C(=O)n1nnc(Cc2ccncc2)n1` [Compound 39, N,N-dimethyl-5-(pyridin-4-ylmethyl)-2H-tetrazole-2-carboxamide], the inhibition at 1 µM (hMGL; [2]) was 40% and the inhibition at 1 µM (ΔTM rFAAH) was 21%.
Compound `CN(C)C(=O)n1nnc(Cc2ccc(-c3ccncc3)cc2)n1` [Compound 44, N,N-dimethyl-5-(4-(pyridin-4-yl)benzyl)-2H-tetrazole-2-carboxamide] has an inhibition at 1 µM (hMGL; [2]) of 10% and an inhibition at 1 µM (ΔTM rFAAH) of 12%.
In the case of `CN(CCCCCl)C(=O)n1cnc(-c2ccccc2)c1` [Compound 47, N-(4-chlorobutyl)-N-methyl-4-phenyl-1H-imidazole-1-carboxamide], the inhibition at 1 µM (hMGL; [2]) is reported as 15%, the inhibition at 0.01 µM (ΔTM rFAAH) is reported as 12% and the inhibition at 1 µM (ΔTM rFAAH) is reported as 90%. For the same compound, the IC50 (ΔTM rFAAH) was 78 nM.
`CN(CCCCN=[N+]=[N-])C(=O)n1cnc(-c2ccccc2)c1` [Compound 48, N-(4-azidobutyl)-N-methyl-4-phenyl-1H-imidazole-1-carboxamide] showed an inhibition at 1 µM (hMGL; [2]) of 14%, an inhibition at 0.01 µM (ΔTM rFAAH) of 8% and an inhibition at 1 µM (ΔTM rFAAH) of 90%.
For `CN(CCCCN=C=S)C(=O)n1cnc(-c2ccccc2)c1` [Compound 49, N-(4-isothiocyanatobutyl)-N-methyl-4-phenyl-1H-imidazole-1-carboxamide], the inhibition at 1 µM (hMGL; [2]) was 7%, the inhibition at 0.01 µM (ΔTM rFAAH) was 25% and the inhibition at 1 µM (ΔTM rFAAH) was 90%. The IC50 (ΔTM rFAAH) was 42 nM.
Work on `CN(C)C(=O)n1nnc(Cc2cccc3ccccc23)n1` [Compound 50, N,N-dimethyl-5-(naphthalen-1-ylmethyl)-2H-tetrazole-2-carboxamide] yielded an inhibition at 100 µM (hMGL) of 42% and an inhibition at 100 µM (ΔTM rFAAH) of 85%.
Compound `CN(C)C(=O)n1nnc(Cc2ccc3ccccc3c2)n1` [Compound 51] has an inhibition at 100 µM (hMGL) of 26% and an inhibition at 1 µM (ΔTM rFAAH) of 30%.
With `CN(CCCCCl)C(=O)n1cnc(-c2ccccc2)n1` [Compound 53, N-(4-chlorobutyl)-N-methyl-3-phenyl-1H-1,2,4-triazole-1-carboxamide] the inhibition at 0.01 µM (hMGL; [3]) was 13%, the inhibition at 1 µM (hMGL; [2]) was 71% and the inhibition at 1 µM (ΔTM rFAAH) was 100%.
`CN(C)C(=O)n1cnc2nc(OCc3ccccc3)ncc21` [Compound 59, 2-(benzyloxy)-N,N-dimethyl-7H-purine-7-carboxamide] gave an inhibition at 100 µM (hMGL) of 86% and an inhibition at 100 µM (ΔTM rFAAH) of 10%.
`CN(C)C(=O)n1cnc2ncncc21` [Compound 60, N,N-dimethyl-7H-purine-7-carboxamide] gave an inhibition at 1 µM (hMGL; [2]) of 86% and an inhibition at 1 µM (ΔTM rFAAH) of 96%.
`CN(C)C(=O)n1cnc2cncnc21` [Compound 61, N,N-dimethyl-9H-purine-9-carboxamide] showed an inhibition at 1 µM (hMGL; [2]) of 87% and an inhibition at 1 µM (ΔTM rFAAH) of 87%.
`CN(C)C(=O)N1C=NC2C(N=CN2C(=O)N(C)C)C1=O` (stereo not drawn) [Compound 62, N^1,N^1,N^9,N^9-tetramethyl-6-oxo-5,6-dihydro-4H-purine-1,9-dicarboxamide] was tested, and the inhibition at 1 µM (hMGL; [2]) was 83% and the inhibition at 1 µM (ΔTM rFAAH) was 99%.
In the case of `CN(C)C(=O)n1cc(Cc2ccccc2)nn1` [Compound 70, 4-benzyl-N,N-dimethyl-1,2,3-triazole-1-carboxamide], the inhibition at 1 µM (hMGL; [2]) is reported as 99% and the inhibition at 1 µM (ΔTM rFAAH) is reported as 98%.
